Earlier results as cited in publication PMC11791199 (Scientific Reports, 2025).
Starred links: 1 amine or outer side, 2 acyl side, 3 side chain; linkers in the order of their positions; H or OH if unused. Positions of bridges follow the written chain, without caps; N, C: chain ends. Non-standard residues stand in square brackets, D forms with d. Residues, ends and D or L forms follow the SMILES beside them. *: point of attachment. Phe(3R-OH) = O=C([C@@H](N[*:1])[C@H](O[*:3])c1ccccc1)[*:2]; NMeTrp(4-OMe) = CN[C@@H](Cc1c[nH]c2cccc(OC)c12)C(=O)O; NMeaIle = CC[C@@H](C)[C@H](NC)C(=O)O; NMe2Val = CC(C)[C@@H](C(=O)*)N(C)C; NMeT = CN[C@H](C(=O)O)[C@@H](C)O; NMeL = CN[C@@H](CC(C)C)C(=O)O; NMeV = CN[C@H](C(=O)O)C(C)C

What was measured:
Conditions in all cases: cited from earlier work
[1] = test system: tuberculosis
[2] = biological target: ClpC1P1P2 (Mycobacterium tuberculosis, UniProt P9WPC9)
[3] = biological target: ClpC1 (Mycobacterium tuberculosis, UniProt P9WPC9)
[4] = biological target: ClpC1 NTD (Mycobacterium tuberculosis, UniProt P9WPC9)
ClpC1 NTD, sequence (P9WPC9 2-144): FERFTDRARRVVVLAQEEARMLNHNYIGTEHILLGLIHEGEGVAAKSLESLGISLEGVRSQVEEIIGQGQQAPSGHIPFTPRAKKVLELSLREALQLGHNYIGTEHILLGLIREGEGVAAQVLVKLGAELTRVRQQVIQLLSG

ClpC1, sequence (P9WPC9 whole entry): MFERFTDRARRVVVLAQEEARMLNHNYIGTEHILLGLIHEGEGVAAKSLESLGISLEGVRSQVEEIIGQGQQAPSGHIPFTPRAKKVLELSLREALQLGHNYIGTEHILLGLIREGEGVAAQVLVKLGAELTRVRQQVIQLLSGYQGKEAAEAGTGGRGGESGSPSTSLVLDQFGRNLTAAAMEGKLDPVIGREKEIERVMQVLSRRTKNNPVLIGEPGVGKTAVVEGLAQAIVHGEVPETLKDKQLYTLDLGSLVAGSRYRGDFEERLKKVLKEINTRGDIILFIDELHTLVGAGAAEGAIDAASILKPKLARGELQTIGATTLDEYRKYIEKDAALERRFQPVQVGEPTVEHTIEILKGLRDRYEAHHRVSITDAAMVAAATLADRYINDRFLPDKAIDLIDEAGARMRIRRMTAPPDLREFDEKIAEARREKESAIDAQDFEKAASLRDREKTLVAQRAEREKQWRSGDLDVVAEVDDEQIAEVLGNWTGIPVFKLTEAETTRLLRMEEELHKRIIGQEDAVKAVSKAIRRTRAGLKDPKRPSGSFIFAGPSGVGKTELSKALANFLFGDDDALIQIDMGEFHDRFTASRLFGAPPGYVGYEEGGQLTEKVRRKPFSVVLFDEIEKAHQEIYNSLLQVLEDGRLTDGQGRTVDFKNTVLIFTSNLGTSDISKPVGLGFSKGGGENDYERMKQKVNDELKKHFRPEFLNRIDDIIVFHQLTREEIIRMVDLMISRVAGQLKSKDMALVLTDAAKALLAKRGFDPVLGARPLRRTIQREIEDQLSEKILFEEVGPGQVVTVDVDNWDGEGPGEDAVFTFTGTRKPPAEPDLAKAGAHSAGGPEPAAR
ClpC1P1P2, sequence (P9WPC9 whole entry): as above

Molecule | MIC value, times lower than that of rifampicin or isoniazid [1] [times] | effect on FITC-casein degradation [2] | effect on ATPase activity [3] | affinity for ClpC1-NTD [4]
CC[C@@H](C)[C@@H](C(=O)N[C@@H]1C(=O)N(C)[C@@H]([C@@H](C)O)C(=O)N[C@@H](C(C)C)C(=O)N(C)[C@@H](CC(C)C)C(=O)N[C@@H](C(C)C)C(=O)N(C)[C@@H](C(C)C)C(=O)N(C)[C@@H](Cc2c[nH]c3cccc(OC)c23)C(=O)N[C@@H](C(C)C)C(=O)N[C@@H]([C@H](O)c2ccccc2)C(=O)N[C@@H](C(C)C)C(=O)O[C@@H]1C)N(C)C(=O)[C@@H](NC(=O)[C@H](C(C)C)N(C)C)C(C)C [ecumicin] (NMe2Val-V[NMeaIle]T[NMeT]V[NMeL]V[NMeV][NMeTrp(4-OMe)]V[Phe(3R-OH)]V; ester 3-C) | 50 | inhibitor | strong activator | 
cyclomarin |  | very modest effects | very modest effects | nM affinity
